Measurements from the CheMixHub viscosity set.

Experiment: xn = mol fraction of the nth substance listed

C=Cc1ccccc1 + CCCCCCCCCC
viscosity [mPa·s], 101.33 kPa
Details | x1 = 0.1007 | x1 = 0.2052 | x1 = 0.2991 | x1 = 0.4114 | x1 = 0.4959 | x1 = 0.6135 | x1 = 0.6992 | x1 = 0.8062 | x1 = 0.8984
298.15 K | 0.803 | 0.773 | 0.75 | 0.724 | 0.706 | 0.688 | 0.68 | 0.677 | 0.693
303.15 K | 0.749 | 0.722 | 0.702 | 0.678 | 0.663 | 0.646 | 0.638 | 0.633 | 0.644
308.15 K | 0.7 | 0.678 | 0.658 | 0.638 | 0.624 | 0.607 | 0.602 | 0.6 | 0.611

C=Cc1ccccc1 + CC(=O)N(C)C
viscosity [mPa·s], 101.33 kPa
Details | x1 = 0.109 | x1 = 0.1994 | x1 = 0.2958 | x1 = 0.4002 | x1 = 0.5004 | x1 = 0.6012 | x1 = 0.7027 | x1 = 0.8005 | x1 = 0.9015
298.15 K | 0.938 | 0.936 | 0.937 | 0.929 | 0.921 | 0.903 | 0.881 | 0.851 | 0.808
303.15 K | 0.874 | 0.873 | 0.872 | 0.863 | 0.857 | 0.841 | 0.821 | 0.795 | 0.753
308.15 K | 0.817 | 0.818 | 0.815 | 0.807 | 0.8 | 0.785 | 0.766 | 0.742 | 0.7

CCC(C)(C)OC + Cc1cccc(C)c1
viscosity [mPa·s], 100 kPa
Details | x1 = 0.0521 | x1 = 0.1462 | x1 = 0.2667 | x1 = 0.4165 | x1 = 0.4774 | x1 = 0.5331 | x1 = 0.6068 | x1 = 0.7371 | x1 = 0.8642 | x1 = 0.9512
293.15 K | 0.603 | 0.584 | 0.563 | 0.539 | 0.53 | 0.521 | 0.509 | 0.487 | 0.464 | 0.448
303.15 K | 0.542 | 0.531 | 0.518 | 0.499 | 0.489 | 0.48 | 0.468 | 0.447 | 0.426 | 0.417
313.15 K | 0.484 | 0.47 | 0.455 | 0.439 | 0.433 | 0.427 | 0.419 | 0.404 | 0.386 | 0.375

CCCCCCCCO + CCCCCCO
viscosity [mPa·s], 101.8 kPa
Details | x2 = 0.1207 | x2 = 0.3506 | x2 = 0.5615 | x2 = 0.7463 | x2 = 0.9227
298.15 K | 7.227 | 6.442 | 5.793 | 5.234 | 4.736
308.15 K | 5.209 | 4.695 | 4.259 | 3.879 | 3.53
318.15 K | 3.833 | 3.481 | 3.18 | 2.914 | 2.671
